Columns and labels:
A673 xenografts = A673 xenografts in nude mice, tumor growth inhibition; format: in vivo; conditions: A673 xenograft (FIGS. 14A-C)
Method: Dose range and time course studies comparing anti-neoplastic effects of SMSM−167 and SMSM−151 against vehicle were conducted.
Female NCrNu mice were used. Age range of enrolment was 7-10 weeks. A total of 75 animals were for the studies.
The A673 tumor cell line was maintained in vitro as a monolayer culture. […] The cells growing in an exponential growth phase were harvested and counted for tumor inoculation.
Each mouse were inoculated into a right flank with the single cell suspension of 95% viable tumor cells (5×10^6 cells/mouse) in serum-free RPMI 1640 Media for tumor development. Treatments were administered when mean tumor size reached approximately 75 mm^3.
Before commencement of treatment, all animals were weighed and assigned to treatment groups using a randomization procedure. Mice were randomized into groups based upon their tumor sizes to ensure that each group had approximately the same mean tumor size and range of tumor size.
After inoculation, the animals were checked daily for morbidity and mortality. At the time of routine monitoring, the animals were checked for any effects of tumor growth on normal behavior such as mobility, food and water consumption, body weight gain/loss, eye/hair matting and any other abnormal effects. Deaths and observed clinical signs were recorded.
Body weight were measured prior to tumor inoculation and prior to the treatment administration and then daily. Tumor size were measured 2-3 times per week in two dimensions using a caliper, and the volume were expressed in mm^3 using the formula: V=0.5×a×b^2 where a and b are the long and short diameters of the tumor, respectively.
(§1) Studies were terminated when the tumor size in the vehicle treated group reached 2,000 mm^3. Each mouse was bled at 2 hrs after the last dose and at least 50 μl of plasma were collected from each mouse. All of the collected plasma samples and retainer dosing solutions for each dose level were used for bioanalytical measurements. All tumors were also collected and weighed. One necrosis-free tumor fragment of approximately 50 mg was taken from each tumor and flash-frozen for RNA isolation. The remaining tumor was flash frozen for PK analysis.
Studies were performed to assess the effects of in vivo SMSM treatment on glioblastoma, breast, pancreatic, prostate, melanoma, lymphoma and Ewing sarcoma tumors. Studies were also performed to assess the effects of in vivo SMSM treatment on mRNA levels. Immunocompromised nude mice with pre-existing glioblastoma, breast, pancreatic, prostate, melanoma, lymphoma and Ewing sarcoma xenografts were treated with vehicle or SMSMs. Tumor tissues from subcutaneous xenografts were broken into a powder using a BioPulverizer (Biospec Products, Inc.). After SMSM treatment, mRNA was isolated from the xenografts and was analyzed by qRT-PCR.
as §1, with “Tumor size was measured 2 times per week in two dimensions using a caliper. Studies” for “Studies”, “plasma was” for “plasma were”
The effects of in vivo SMSM treatments on pre-existing subcutaneous glioblastoma, breast, pancreatic, prostate, melanoma, lymphoma and Ewing sarcoma xenografts were assessed. For these in vivo experiments, 1×10^6Raji, A375, A673, MDA-MB-231, BxPC-3, PC-3 or U87 (cells re-suspended in 100 μl PBS were subcutaneously injected into the flanks of nude mice. When the tumor reached approximately 100 mm^3 (volume=(¾)(π)(length/2)(width/2)^2), the treatments indicated in the tables below were initiated. […]

A673 cells = experiment: Cell viability and proliferation, A673 cells (crystal violet); format: cell-based; conditions: cell proliferation IC50 in NHDF cells over A673 cells, 72 h
Method: Small molecule splicing modulators were tested in a dose-response assay using A673 cells and NHDF cells.
A673 cells or NHDF cells were first plated in 96-well plastic tissue culture plates (10,000 cells per well). The cells were treated with vehicle alone (DMSO), or increasing concentrations of SMSM compounds for 72 h. Following treatment, cell proliferation was determined using a crystal violet assay. The relative cell proliferation at each concentration was determined.

[1] = Maximum tolerable dose study (survival, body weight); format: in vivo; conditions: mice
Method: Survival of mice after administration of SMSMs after 10 or 11 days was assessed.
Tolerance of the drug treatments was determined by measuring the weight of the mice during the period of drug administration. Body weight was measured prior to tumor inoculation and prior to the treatment administration and then daily. The changes in the final weight of the mice for the SMSM treatments were determined.

FoxM1 BC mRNA = experiment: FoxM1 splicing in cells: FoxM1 BC mRNA decrease (exon included); format: cell-based; conditions: read-out: Splice IC50 (nM) FoxM1 BC mRNA decrease (exon included)
Method: (§2) FIG. 7 depicts a graph of relative transcript levels of FOXM1 isoform A (represses cancer) and FOXM1 isoform B (promotes cancer) in A-673 cells incubated with the indicated concentrations of an SMSM.

FoxM1 A mRNA = experiment: FoxM1 splicing in cells: FoxM1 A mRNA increase (exon excluded); format: cell-based; conditions: read-out: Splice EC50 (nM) FoxM1 A mRNA increase (exon excluded)
Method: as §2

A-673 cells = experiment: A-673 cell viability; format: cell-based; conditions: Homo sapiens, A673
Method: FIG. 9A depicts a graph of viable A-673 cells when incubated with the indicated concentrations of an SMSM.

IKBKAP = IKBKAP splicing assay (IKBKAP^FL and IKBKAP^Δ20 mRNA, qPCR); format: cell-based; conditions: 24 hours
Method: Various cells lines were treated with the SMSMs described herein. RNA was then isolated, cDNA synthesized, qPCR performed and the levels of IKBKAP targets of the SMSMs were detemined.
On the day of the experiment, a 96-well plate was seeded with the cell lines of interest. The cells were diluted with full growth media to a concentration of 2.0×10^5 cells/mL and 100 μL of cells were added to each well (20,000 cells per well). The cells were treated with a compound immediately after plating.
The compounds were then added to the cell plate using the HP compound dispenser. In the initial experiment, atop concentration of 10 μM and an 8 point 4-fold dilution scheme was used. […]
The qPCR was performed using a QuantStudio 6 instrument (ThermoFisher) and the following cycling conditions and according to the tables below. All samples and standards were analyzed in triplicate. […]
The determined IKBKAP^FL and IKBKAP^Δ20 isoform quantities were then used to determine the IKBKAP^FL: IKBKAP^Δ20 ratio at increasing SMSM compound concentrations. The PPIA quantities were used in the normalization to account of cell proliferation effects of the compounds.
An assay to measure the IKBKAP^FL mRNA and IKBKAP^Δ20 mRNA simultaneously in cell wells was performed. The RNA values were measured relative to DMSO control and also included a housekeeping gene, PPIA to ensure data was consistent. […]

For `CN(c1ccc(-c2cc(F)c(-c3cn[nH]c3)cc2O)nn1)[C@H]1C[C@]2(C)CC[C@](C)(C1)N2` [compound 167, 2-(6-(((1R,3s,5S)-1,5-dimethyl-8-azabicyclo[3.2.1]octan-3-yl)(methyl)amino)pyridazin-3-yl)-4-fluoro-5-(1H-pyrazol-4-yl)phenol], the “TGI(%)” value (A673 xenografts; 5 mg/kg BID PO, Day 7) was 65.56%, the “TGI(%)” value (A673 xenografts; 5 mg/kg BID PO, Day 11) was 56.92% and the “TGI(%)” value (A673 xenografts; 5 mg/kg BID PO, Day 14) was 55.14%. The “TGI(%)” value (A673 xenografts; 5 mg/kg BID PO, Day 18) was 59.68%, the “TGI(%)” value (A673 xenografts; 7.5 mg/kg BID PO, Day 7) was 59.45% and the “TGI(%)” value (A673 xenografts; 7.5 mg/kg BID PO, Day 11) was 64.75%. The “TGI(%)” value (A673 xenografts; 7.5 mg/kg BID PO, Day 14) was 64.43%, the “TGI(%)” value (A673 xenografts; 7.5 mg/kg BID PO, Day 18) was 72.80% and the “TGI(%)” value (A673 xenografts; 10 mg/kg QD PO, Day 7) was −32.72%. For the same compound, the “TGI(%)” value (A673 xenografts; 10 mg/kg QD PO, Day 11) was 3.85%, the “TGI(%)” value (A673 xenografts; 10 mg/kg QD PO, Day 14) was −2.13% and the “TGI(%)” value (A673 xenografts; 10 mg/kg QD PO, Day 18) was 41.77%. The “Ratio NHDF/A673 IC50” value (A673 cells) was >2,500, the Outcome ([1]; IP, 0.1 mg/kg, BIDx12) was “All survived” and the Outcome ([1]; IP, 0.3 mg/kg, BIDx12) was “All survived”. For the same compound, the Outcome ([1]; IP, 1 mg/kg, QDx12) was “All survived” and the Outcome ([1]; PO, 5 mg/kg, QDx12) was “All survived”.

Compound `Oc1cc(C2C=NN=N2)ccc1-c1ccc(O[C@@H]2C[C@H]3CC[C@@H](C2)N3)nn1` (stereo partly drawn) [compound 253, 2-(6-(((1R,3s,5S)-8-azabicyclo[3.2.1]octan-3-yl)oxy)pyridazin-3-yl)-5-(1H-1,2,3-triazol-4-yl)phenol] has an IC50 (FoxM1 BC mRNA) of 251 to 500 nM, an EC50 (FoxM1 A mRNA) of 251 to 500 nM and an IC50 (A-673 cells) of 501 to 1000 nM.

For `Oc1cc(-c2cn[nH]c2)ccc1-c1ccc(O[C@H]2C[C@H]3CCC[C@@H](C2)N3)nn1` [compound 277, 2-(6-(((1R,3r,5S)-9-azabicyclo[3.3.1]nonan-3-yl)oxy)pyridazin-3-yl)-5-(1H-pyrazol-4-yl)phenol], the IC50 (FoxM1 BC mRNA) was over 1000 nM, the EC50 (FoxM1 A mRNA) was over 1000 nM and the IC50 (A-673 cells) was over 1000 nM.

For `Oc1cc(-c2cn[nH]c2)c(F)cc1-c1ccc(O[C@@H]2C[C@H]3CCC[C@@H](C2)N3)nn1` [compound 278, 2-(6-(((1R,3s,5S)-9-azabicyclo[3.3.1]nonan-3-yl)oxy)pyridazin-3-yl)-4-fluoro-5-(1H-pyrazol-4-yl)phenol], the EC50 (IKBKAP; IKBKAP^FL mRNA increase) was 101 to 350 nM and the IC50 (IKBKAP; IKBKAP^Δ20 mRNA decrease) was under 200 nM.

Work on `Oc1cc(-c2cn[nH]c2)ccc1-c1ccc(O[C@@H]2C[C@H]3CCC[C@@H](C2)N3)nn1` [compound 276, 2-(6-(((1R,3s,5S)-9-azabicyclo[3.3.1]nonan-3-yl)oxy)pyridazin-3-yl)-5-(1H-pyrazol-4-yl)phenol] yielded an IC50 (A-673 cells) of 101 to 250 nM.

From US11326165B1, “Methods and compositions for modulating splicing” (SKYHAWK THERAPEUTICS, INC., priority 2017, dated 2022)
